The results in this text go back to ChEMBL document CHEMBL6096706, “Discovery of WDR5-MLL1 and HDAC Dual-Target Inhibitors for the Treatment of Acute Myeloid Leukemia” (J Med Chem, 2025).

Experiment [1] has as its target T1, Protein deacetylase HDAC6 (Homo sapiens, UniProt Q9UBN7).
T1 sequence (Q9UBN7 whole entry): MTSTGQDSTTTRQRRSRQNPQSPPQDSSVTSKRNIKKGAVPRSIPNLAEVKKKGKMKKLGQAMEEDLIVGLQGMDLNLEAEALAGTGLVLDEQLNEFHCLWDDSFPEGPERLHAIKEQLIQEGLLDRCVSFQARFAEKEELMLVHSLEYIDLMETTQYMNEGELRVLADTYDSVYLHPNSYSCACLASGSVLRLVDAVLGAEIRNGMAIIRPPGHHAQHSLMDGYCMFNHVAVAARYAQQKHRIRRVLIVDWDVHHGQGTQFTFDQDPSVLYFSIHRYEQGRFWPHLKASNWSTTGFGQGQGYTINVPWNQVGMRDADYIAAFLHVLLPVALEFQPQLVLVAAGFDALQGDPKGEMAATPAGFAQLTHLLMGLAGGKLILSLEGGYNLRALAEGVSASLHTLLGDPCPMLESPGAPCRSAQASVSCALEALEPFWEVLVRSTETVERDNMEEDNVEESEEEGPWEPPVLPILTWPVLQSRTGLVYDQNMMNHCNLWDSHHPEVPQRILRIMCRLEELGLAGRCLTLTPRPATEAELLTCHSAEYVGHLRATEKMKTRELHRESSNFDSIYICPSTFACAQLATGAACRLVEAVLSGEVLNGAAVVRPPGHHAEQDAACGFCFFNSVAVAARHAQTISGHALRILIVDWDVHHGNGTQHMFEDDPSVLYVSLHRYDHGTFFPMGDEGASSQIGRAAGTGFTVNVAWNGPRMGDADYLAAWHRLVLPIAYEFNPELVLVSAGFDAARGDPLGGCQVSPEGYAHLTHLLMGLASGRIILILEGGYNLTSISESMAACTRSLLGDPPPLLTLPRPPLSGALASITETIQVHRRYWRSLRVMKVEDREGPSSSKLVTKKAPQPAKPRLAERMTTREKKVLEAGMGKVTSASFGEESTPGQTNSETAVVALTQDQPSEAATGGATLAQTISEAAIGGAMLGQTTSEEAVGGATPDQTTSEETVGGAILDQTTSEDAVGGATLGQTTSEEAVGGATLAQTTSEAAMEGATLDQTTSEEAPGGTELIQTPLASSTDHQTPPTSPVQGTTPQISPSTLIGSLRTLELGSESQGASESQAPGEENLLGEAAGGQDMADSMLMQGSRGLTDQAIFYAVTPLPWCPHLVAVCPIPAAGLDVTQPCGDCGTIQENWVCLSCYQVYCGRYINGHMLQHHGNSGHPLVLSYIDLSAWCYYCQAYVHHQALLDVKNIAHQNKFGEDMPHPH
Nature of the experiment: Inhibition of HDAC6 (unknown origin) by fluorescence based assay.

Experiment [2] concerns MV4-11. The experiment can be described thus: Induction of apoptosis in human MV4-11 cells assessed as viable cells at 100 nmol/L incubated for 72 hrs by Annexin V/PI staining based flow cytometry analysis (reference value: 90.23%). It counts as functional. To be noted: read-out: Activity.
The subject of experiment [3] is MV4-11. Nature of the experiment: Antitumor activity against human MV4-11 cells xenografted in mouse assessed as tumor growth inhibition at 10 mg/kg, ip administered daily for 17 days. It counts as functional. The note with it: MV4-11, 408 h, time 17 day, read-out: TGI. (In xenograft studies the graft and the host belong to different species.)
Experiment [4] relates to MV4-11. Nature of the experiment: Antitumor activity against human MV4-11 cells xenografted in mouse assessed as tumor growth inhibition at 20 mg/kg, ip administered daily for 17 days. Format: functional. The note with it: MV4-11, 408 h, time 17 day, read-out: TGI.
Experiment [5] has as its system MV4-11. Nature of the experiment: Antiproliferative activity against human MV4-11 cells assessed as growth inhibition at 0.05 uM measured after 72 hrs by CellTiterGlo assay. Format: functional. The note with it: read-out: GI. (Cellular ATP, detected with luciferase, serves as a proxy for viable cell number.)
The test system of experiment [6] is MV4-11. The experiment can be described thus: Antiproliferative activity against human MV4-11 cells assessed as growth inhibition at 0.4 uM measured after 72 hrs by CellTiterGlo assay. Format: functional. The note with it: read-out: GI.
Experiment [7] deals with MV4-11. The experiment can be described thus: Antiproliferative activity against human MV4-11 cells assessed as growth inhibition at 0.05 uM measured after 72 hrs in presence of 0.4 uM of vorinostat by CellTiterGlo assay. It counts as functional. The note with it: read-out: GI.
In experiment [8] the test system is MV4-11. Nature of the experiment: Antiproliferative activity against human MV4-11 cells assessed as growth inhibition at 0.1 uM measured after 72 hrs in presence of 0.1 uM of vorinostat by CellTiterGlo assay. It counts as functional. The note with it: read-out: GI.
Experiment [9] deals with MV4-11. The experiment can be described thus: Antiproliferative activity against human MV4-11 cells assessed as growth inhibition at 0.1 uM measured after 72 hrs in presence of 0.2 uM of vorinostat by CellTiterGlo assay. The note with it: read-out: GI. Format: functional.
Experiment [10] has as its system MV4-11. Nature of the experiment: Antiproliferative activity against human MV4-11 cells assessed as growth inhibition at 0.1 uM measured after 72 hrs in presence of 0.4 uM of vorinostat by CellTiterGlo assay. Format: functional. The note with it: read-out: GI.
Experiment [11] deals with MV4-11. Nature of the experiment: Antiproliferative activity against human MV4-11 cells assessed as growth inhibition at 0.4 uM measured after 72 hrs in presence of 0.05 uM of vorinostat by CellTiterGlo assay. Format: functional. The note with it: read-out: GI.
For experiment [12], the system named is MV4-11. The experiment can be described thus: Antiproliferative activity against human MV4-11 cells assessed as growth inhibition at 0.5 uM measured after 72 hrs in presence of 0.1 uM of vorinostat by CellTiterGlo assay. Format: functional. The note with it: read-out: GI.
In experiment [13] the test system is MV4-11. The experiment can be described thus: Antiproliferative activity against human MV4-11 cells assessed as growth inhibition at 0.5 uM measured after 72 hrs in presence of 0.4 uM of vorinostat by CellTiterGlo assay. It counts as functional. To be noted: read-out: GI.
For experiment [14], the system named is MV4-11. Nature of the experiment: Antiproliferative activity against human MV4-11 cells assessed as growth inhibition at 0.5 uM measured after 72 hrs in presence of 0.5 uM of vorinostat by CellTiterGlo assay. It counts as functional. The note with it: read-out: GI.
The test system of experiment [15] is MV4-11. Nature of the experiment: Antiproliferative activity against human MV4-11 cells assessed as growth inhibition at 1 uM measured after 72 hrs in presence of 0.1 uM of vorinostat by CellTiterGlo assay. It counts as functional. The note with it: read-out: GI.
The test system of experiment [16] is MV4-11. Nature of the experiment: Antiproliferative activity against human MV4-11 cells assessed as growth inhibition at 1 uM measured after 72 hrs in presence of 0.4 uM of vorinostat by CellTiterGlo assay. Format: functional. To be noted: read-out: GI.
Experiment [17] has as its system MV4-11. The experiment can be described thus: Antiproliferative activity against human MV4-11 cells assessed as growth inhibition at 2 uM measured after 72 hrs in presence of 0.5 uM of vorinostat by CellTiterGlo assay. The note with it: read-out: GI. It counts as functional.
The subject of experiment [18] is MV4-11. Nature of the experiment: Induction of apoptosis in human MV4-11 cells assessed as necrotic cells at 200 nM incubated for 72 hrs by Annexin V/PI staining based flow cytometry analysis (reference value: 2.61%). It counts as functional. (Flow cytometry measures light scatter and fluorescence of single cells or particles in a stream.)
The subject of experiment [19] is MV4-11. Nature of the experiment: Induction of apoptosis in human MV4-11 cells assessed as necrotic cells at 200 nM incubated for 72 hrs in presence of vorinostat by Annexin V/PI staining based flow cytometry analysis (reference value: 2.61%). Format: functional.
Experiment [20] concerns MV4-11. The experiment can be described thus: Induction of apoptosis in human MV4-11 cells assessed as late apoptotic cells at 400 nM incubated for 72 hrs in presence of vorinostat by Annexin V/PI staining based flow cytometry analysis (reference value: 6.42 %). Format: functional.
Experiment [21] relates to MV4-11. Nature of the experiment: Induction of apoptosis in human MV4-11 cells assessed as necrotic cells at 400 nM incubated for 72 hrs in presence of vorinostat by Annexin V/PI staining based flow cytometry analysis (reference value: 2.61%). Format: functional.
Experiment [22] has as its system MV4-11. The experiment can be described thus: Induction of apoptosis in human MV4-11 cells assessed as necrotic cells at 600 nM incubated for 72 hrs in presence of vorinostat by Annexin V/PI staining based flow cytometry analysis (reference value: 2.61%). Format: functional.

With `Cc1c(F)c(N)cc(C(=O)Nc2cc(-c3ccc(C(=O)NCc4ccc(/C=C/C(=O)NO)cc4)cc3)ccc2N2CCN(C)CC2)c1Cl`, half-maximal inhibition in experiment [1] (IC50) was put at 46 nM. Also, the viability at 0.1 µM in the experiment on MV4-11 [2] was 71.5%. The inhibition in vivo at 10 mg/kg in the experiment on MV4-11 [3] is 42.3%. Besides, the inhibition in vivo at 20 mg/kg in the experiment on MV4-11 [4] is 69%.

`Cc1c(F)c(N)cc(C(=O)Nc2cc(-c3ccc(C(=O)N4CCOCC4)cc3)ccc2N2CCN(C)CC2)c1Cl`: the inhibition of growth at 0.05 µM in the experiment on MV4-11 [5] turned out to be 17.5%; in the experiment on MV4-11 [7], 45.1%. Further, the inhibition of growth at 0.4 µM in the experiment on MV4-11 [6] worked out at 25.5%; in the experiment with MV4-11 [11], 40%. The inhibition of growth at 0.1 µM with MV4-11 [8] was 42.8%; in the experiment on MV4-11 [9] it was 49.3%; in the experiment with MV4-11 [10] it was 59%. The inhibition of growth at 0.5 µM was determined as 51.7% with MV4-11 [12], 65.2% with MV4-11 [13] and 73.2% in the experiment with MV4-11 [14]. In addition, the inhibition of growth at 1 µM was determined as 57.4% in the experiment on MV4-11 [15] and 68.7% in the experiment on MV4-11 [16]. Also, the inhibition of growth at 2 µM in the experiment with MV4-11 [17] stood at 95.2%. Also, the Activity turned out to be 1.62% in the experiment with MV4-11 [18]; 1.48% in the experiment on MV4-11 [19]; 16.81% in the experiment with MV4-11 [20]; 3.05% in the experiment with MV4-11 [21]; 1.55% in the experiment on MV4-11 [22].

One may read the IC50 as the concentration at which inhibition is half-maximal. A low value points to greater potency in that assay.
